Measurements: PubChem BioAssay AID792 (PCMD, 2007)
Results filed as inconclusive are left out. Active and inactive are the calls of the source. No rule for the calls is given here.

Target: S. cerevisiae eIF2B mutant, luciferase reporter luminescence
Assay: eIF2B reporter inhibitors in yeast strains, dose response, S. cerevisiae, mutant, wild-type, luminescence, growth (AID 792)
[1] = measured here: mutant yeast growth
[2] = S. cerevisiae wild-type, luminescence

Structure (SMILES) | IC50 | IC50 [1] | IC50 [2]
Cc1cc2c(c(=O)n1CC1CCCO1)C(c1ccco1)C(C#N)=C(N)O2 (configuration not stated) | > 100 µM (inactive) | > 100 µM | –
Nn1cnnc1SC1CCCCC1NS(=O)(=O)c1ccccc1 (configuration not stated) | > 100 µM (inactive) | > 100 µM | –
C=CCn1c(SCc2c(Cl)cccc2Cl)nnc1-c1cccnc1 | > 100 µM (inactive) | > 100 µM | –
CCOC(=O)N1CCN(c2cc(NCCC(=O)O)c3c4c(onc24)-c2ccccc2C3=O)CC1 | > 100 µM (inactive) | – | –
Cc1cc(/C([O-])=C(/C(=S)Nc2ccc(F)cc2)[n+]2ccccc2)c(C)n1-c1ccc(F)cc1 | > 100 µM (inactive) | > 100 µM | –
CN(C)C(=O)Oc1ccc(OC(=O)c2ccccc2)cc1 | – | > 100 µM | –
COc1cc(OC)nc(NC(=O)CCl)n1 | > 100 µM (inactive) | > 100 µM | –
Cc1c(C(=O)N2CCCC2)sc(NC(=O)c2ccc(Cl)cc2)c1C#N | > 100 µM (inactive) | > 100 µM | –
CCOC(=O)c1c(C)[nH]c(C(=O)Nc2ccc3c(c2)OCO3)c1C | > 100 µM (inactive) | > 100 µM | –
CC(=O)c1cnc(Nc2nc(C)c3cc(C)c(C)cc3n2)nc1C | > 100 µM (inactive) | > 100 µM | –
Oc1cc(Cc2ccccc2)cnc1CN1CCCCC1 | > 100 µM (inactive) | > 100 µM | –
Fc1ccc2c(c1)nnn2C1CCN(Cc2nnnn2C2CCCCC2)CC1 | > 100 µM (inactive) | > 100 µM | –
Cc1cc2ncc(C(=O)Nc3ccccc3)c(C)n2n1 | > 100 µM (inactive) | > 100 µM | –
Nc1ccc2oc(CCc3ccccc3)nc2c1 | > 100 µM (inactive) | > 100 µM | –
COc1ccc(S(=O)(=O)N2CCCCC2)cc1C(C)C | > 100 µM (inactive) | > 100 µM | –
CCCOCC1CC2(CC(C)(c3csc(N)n3)OC2=O)C(=O)O1 (configuration not stated) | > 100 µM (inactive) | > 100 µM | –
Nc1nnnn1/N=C/c1ccc(O)cc1 | inactive | > 100 µM | 2.78 µM
COC(=O)c1cccc(NC(=O)c2ccc(S(=O)(=O)N3CCN(C)CC3)cc2)c1 | > 100 µM (inactive) | > 100 µM | –
CCCCCn1c(SCC(=O)OCC)nc2cc(C(=O)NCc3ccco3)ccc2c1=O | > 100 µM (inactive) | > 100 µM | –
CC(C)C(NC(=O)c1ccccc1)C(=O)NC1=NCCS1 (configuration not stated) | > 100 µM (inactive) | > 100 µM | –

Structure (SMILES) | IC50 | IC50 [1] | IC50 [2]
Cc1c(O)c(CN2CCCC2)cc2c1oc(=O)c1ccccc12 | > 100 µM (inactive) | > 100 µM | > 100 µM
CC(=O)c1cccc(-n2nnnc2SCC(=O)Nc2cccc(NC(=O)c3ccco3)c2)c1 | > 100 µM (inactive) | > 100 µM | –
Cc1ccc(C)c(N2CCN(C(=O)c3ccc(CS(=O)(=O)c4ccccc4C)o3)CC2)c1 | > 100 µM (inactive) | > 100 µM | –
O=C(Oc1ccc2c(c1)CCC2)N1CCOCC1 | > 100 µM (inactive) | > 100 µM | –
c1ccc(CCc2nc(-c3ccncc3)no2)cc1 | > 100 µM (inactive) | > 100 µM | –
CCOC(=O)CC1=NC(=O)CS1 | > 100 µM (inactive) | > 100 µM | –
COc1ccc(N/C=C(\C#N)c2nc3ccccc3n2C)c(OC)c1 | > 100 µM (inactive) | > 100 µM | –
O=C(NC1CCCC1)C(c1ccccc1)N(Cc1ccco1)C(=O)Cc1cccs1 (configuration not stated) | > 100 µM (inactive) | > 100 µM | –
CCOC(=O)c1c(-c2ccco2)csc1NC(=O)CSc1nnc(N)s1 | > 100 µM (inactive) | > 100 µM | –
COc1ccc(NC(=O)N2CCc3ccccc32)cc1 | inactive | > 100 µM | 6.14 µM
O=C(CC(C(=O)N1CCc2ccccc21)n1ccnc1)NCC1CCCO1 (configuration not stated) | > 100 µM (inactive) | > 100 µM | –
CC(C)(C)SCCNC(=O)c1ccc(Cl)c(S(=O)(=O)N2CCOCC2)c1 | > 100 µM (inactive) | > 100 µM | –
C=CCc1c(C)nc(C)nc1N/N=C/c1ccccc1O | > 100 µM (inactive) | > 100 µM | –
N#CC1=C(SCC(=O)c2ccc(Cl)cc2)NC2=C(C(=O)CCC2)C1c1ccco1 (configuration not stated) | > 100 µM (inactive) | > 100 µM | –
C=CCSc1nnc2c(n1)OC(c1cccnc1)N(C(C)=O)c1ccccc1-2 (configuration not stated) | > 100 µM (inactive) | > 100 µM | –
C=CCn1c(N)cc(=O)nc1SCC(=O)Nc1ccccc1 | > 100 µM (inactive) | > 100 µM | –
CCCCn1nnnc1SCC(=O)N1CCOCC1 | > 100 µM (inactive) | > 100 µM | –
O=C(CCC1COc2ccccc2O1)Nc1ccc(Cl)cn1 (configuration not stated) | > 100 µM (inactive) | > 100 µM | –
Cc1cc2nnc(SCC(=O)NCc3cccs3)n2c2ccccc12 | > 100 µM (inactive) | > 100 µM | –
COc1ccc(S(=O)(=O)N2CCCCC2C(=O)O)cc1OC (configuration not stated) | > 100 µM (inactive) | > 100 µM | –

Structure (SMILES) | IC50 | IC50 [1] | IC50 [2]
Cn1c(SCc2ccc(F)cc2)nnc1-c1cccs1 | > 100 µM (inactive) | > 100 µM | –
CCCS(=O)(=O)N1CCC(C(=O)NCCc2ccc(C)cc2)CC1 | > 100 µM (inactive) | > 100 µM | –
COc1ccc(C2=CC(c3sccc3C)n3nnnc3N2)cc1 (configuration not stated) | > 100 µM (inactive) | > 100 µM | –
O=c1/c(=C/c2ccc(O)cc2)sc2n1CCCN=2 | inactive | > 100 µM | 2.11 µM
CCC(C(=O)NCc1ccc(OC)cc1)n1nc(C)n2c(cc3occc32)c1=O (configuration not stated) | > 100 µM (inactive) | > 100 µM | –
C=CCn1c(SCC(=O)Nc2cc(C)cc(C)c2)nnc1-c1cnccn1 | > 100 µM (inactive) | > 100 µM | –
CN1C(=O)c2ccccc2Sc2ccc(C(=O)N3CCC4(CC3)OCCO4)cc21 | > 100 µM (inactive) | > 100 µM | –
N#Cc1cc2ccccc2nc1SCc1cccnc1 | > 100 µM (inactive) | > 100 µM | –
COc1ccc(NC(=O)c2ccco2)cc1NC(=O)c1ccc(C)cc1 | > 100 µM (inactive) | > 100 µM | –
CC(C)Oc1ccc(C(=O)O)c(C(=O)O)c1 | > 100 µM (inactive) | > 100 µM | –
CCOC(=O)c1nn(-c2cccc(Cl)c2)c2nc(CC(C)C)c(C#N)c(=O)n12 | > 100 µM (inactive) | > 100 µM | –
Cc1cc2c(cc1C)CSC(c1ccc(O)cc1)SC2 | > 100 µM (inactive) | > 100 µM | –
Cc1ccc(C(=O)Nc2ncc(C)s2)o1 | inactive | > 100 µM | 17.6 µM
CCOCCCNC(=O)c1c[nH]c2ccc(C)cc2c1=O | > 100 µM (inactive) | > 100 µM | –
COc1cc(-c2nn3c(-c4ccccn4)nnc3s2)cc(OC)c1OC | > 100 µM (inactive) | > 100 µM | –
CCOC(=O)Cc1csc(NC(=O)CCc2ccc(S(=O)(=O)N3CCOCC3)cc2)n1 | > 100 µM (inactive) | > 100 µM | –
O=C(Nc1ccc(Cl)cn1)c1ccccc1F | > 100 µM (inactive) | > 100 µM | –
COc1ccc(-c2cc3nc(C)cc(N)n3n2)cc1 | inactive | > 100 µM | 3.87 µM
Cc1ccc(S(=O)(=O)N2CCOCC2)cc1C(=O)NCc1ccco1 | > 100 µM (inactive) | > 100 µM | –
